What was measured:
MPO heme ring = biological target: T1, MPO heme ring (Homo sapiens, UniProt P05164); test: MPO heme ring oxidative degradation; type: biochemical; settings: peptides 3.0 mM, H2O2, absorbance 300-550 nm
T1 construct: purchased Lee BioSolutions (Maryland Heights, MO)
T1 sequence (P05164 49-745): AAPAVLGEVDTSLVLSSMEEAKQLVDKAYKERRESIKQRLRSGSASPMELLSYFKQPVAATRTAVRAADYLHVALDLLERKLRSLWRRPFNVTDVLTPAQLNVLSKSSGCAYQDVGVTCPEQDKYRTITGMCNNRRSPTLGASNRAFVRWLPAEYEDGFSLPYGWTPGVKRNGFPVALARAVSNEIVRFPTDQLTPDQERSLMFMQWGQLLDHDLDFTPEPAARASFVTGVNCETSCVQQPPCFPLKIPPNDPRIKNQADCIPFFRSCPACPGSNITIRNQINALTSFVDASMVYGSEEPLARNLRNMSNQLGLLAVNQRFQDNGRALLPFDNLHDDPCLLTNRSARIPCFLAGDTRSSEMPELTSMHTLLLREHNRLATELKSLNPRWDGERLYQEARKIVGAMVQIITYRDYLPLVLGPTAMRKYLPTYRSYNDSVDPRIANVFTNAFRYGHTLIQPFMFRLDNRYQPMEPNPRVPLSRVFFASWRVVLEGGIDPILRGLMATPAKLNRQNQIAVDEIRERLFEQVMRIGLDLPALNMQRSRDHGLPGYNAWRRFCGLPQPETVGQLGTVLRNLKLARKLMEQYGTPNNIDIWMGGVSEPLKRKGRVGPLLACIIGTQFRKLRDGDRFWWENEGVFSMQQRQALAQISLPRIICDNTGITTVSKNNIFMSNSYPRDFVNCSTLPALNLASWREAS
Protocol: In a 96 well plate, 0.025 ml of 1.7 mg/ml MPO was combined with 0.00125 ml of 0.5% H2O2 and 3 mM PIC1 or sarcosine variant peptides in a total volume of 0.125 ml PBS and left to incubate at room temperature for 2 minutes. Using a 96 well plate reader, the wells were scanned for absorbance from 300–550 nm to generate curves reflecting the iron state in the MPO heme ring, as previously reported.
We then evaluated the ability of the variants to prevent degradation of the heme ring in the MPO molecule. […] This can be evaluated via spectrometric measurements of absorption of wavelengths from 300–550 nm. Absorption measurements were made over this spectrum for all variants (Fig 3A–3H). […] The heme ring preservation for these two variants was greater than that for the parent compound, PA-dPEG24.
Fig 3 Sarcosine variant protection of MPO heme ring from oxidative degradation. Absorbance spectra for the heme ring is shown in the absence of hydrogen peroxide (MPO) in red, in the presence of hydrogen peroxide (MPO+H2O2) in black, in the presence of peptide in blue, and in the presence of hydrogen peroxide and peptide together in green. […] B-H) Peptides A2 – C9,10 are denoted in the legends. Peptides were tested at a concentration of 3.0 mM.

[1] = Peptide solubility in water
Protocol: (PA) (Table 1) were synthesized by New England Peptide (Gardner, MA) to >90% purity. Sarcosine variants and PEG were dissolved in water and the pH was adjusted with NaOH. PA was dissolved in DMSO and then brought up to the final concentration with water resulting in 30% DMSO and pH adjusted. Antibody sensitized sheep erythrocytes (EA), purified C1q and factor B-depleted human sera were purchased from Complement Technology (Tyler, TX). Purified myeloperoxidase was purchased from Lee BioSolutions (Maryland Heights, MO) and tetramethylbenzidine (TMB) and PicoGreen were purchased from Thermo Fisher (Waltham MA).
(PA), peptide derivatives were synthesized with sarcosine residues substituted at all 15 positions, included a peptide in which the vicinal cysteines at positions 9 and 10 (C9,C10) were replaced with a single sarcosine residue (Table 1).

[2] = system: purified human neutrophils; test: NETosis assay, free DNA by PicoGreen; type: cell-based; settings: Average of n = 3; peptide 2 mM
Protocol: NETosis assays with immune complexes were performed as previously described. Briefly, normal human serum was stimulated with ovalbumin-antiovalbumin immune complexes in GVBS^++ for 30 minutes at 37 °C. This mixture along with 0.05% H2O2 was then added to purified human neutrophils resuspended in RPMI with or without sarcosine variants (2 mM), allowing NETosis to occur. Quantitation of free DNA released from the neutrophils was performed using PicoGreen. Slides were stained with DAPI (Southern Biotech, Birmingham, AL) and the following antibodies, mouse anti-elastase (Invitrogen, Carlsbad, CA) was used with the secondary goat anti-mouse Alexa Fluor 568 (Novus Biologicals, Centennial, CO) and rabbit anti-histone H3 (Abcam, Cambridge MA) with goat anti-rabbit Alexa Fluor 488 (Novus Biologicals) to visualize formation of NETs which were imaged with fluorescence microscopy with an Olympus BX53 microscope.
In this assay purified human neutrophils are stimulated with normal human serum activated with ovalbumin-antiovalbumin immune complexes and hydrogen peroxide. Free DNA expressed from the neutrophils is then measured in a PicoGreen assay.
Fig 5 Sarcosine variant inhibition of NET formation. Fluorescence microscopy images of NET formation after neutrophil stimulation with immune complexes (IC) and hydrogen peroxide (H2O2) compared with neutrophil only control. Variant I8 inhibition of NET formation is shown in the third row. Histones are probed with anti-histone antibody (αhistone), neutrophil elastase is probed with anti-neutrophil elastase (αNE) and DNA is stained with DAPI. Representative images are shown. […] Purified human neutrophils were stimulated with 2% normal human sera pre-incubated with ovalbumin-antiovalbumin immune complexes, and 0.05% H2O2. Sarcosine peptides and PIC1 were added to the sera to a final concentration of 2 mM. Data are the means of n = 3 independent experiments + SEM.

MPO = biological target: T2, MPO (Homo sapiens, UniProt P05164); test: MPO binding ELISA-type assay; settings: solid phased MPO, plate-based
T2 construct: purchased Lee BioSolutions (Maryland Heights, MO)
T2 sequence (P05164 49-745): T1 sequence (P05164 49-745)
Protocol: An Immunlon-2 HB ELISA plate was coated with 1 μg/ml C1q or MPO in bicarbonate buffer overnight at 4 °C. The plates were washed with PBST (phosphate buffered saline + 0.1% Tween) and then blocked with 1% gelatin/PBS for 2 hours at room temperature. After washing, the plates were incubated with PA or sarcosine variant peptides starting at 2.5 mg/ml and then serially diluted in 1% gelatin/PBS for 1 hour at room temperature. After washing, the plates were probed with rabbit anti-PA (developed with Cocalico Biologicals, Reamstown, PA) at 1:1000 in 1% gelatin/PBS for 1 hour, room temperature, followed by a goat anti-rabbit HRP (Sigma Aldrich, St Louis, MO) at 1:1,000 in 1% gelatin/PBS for 1 hour at room temperature with a washing step in between. Wells were developed using TMB substrate solution, stopped using 1 N H2SO4, and read at 450 nm in a plate reader.
We then tested the binding of the peptide variants to solid phased MPO in a plate-based assay. The binding curves are shown in Fig 2C with MPO binding identified for all variants except C9,10. Due to the near complete overlay of the I8 and PA curves, the PA curve is not shown in the graph. Half-maximal (Fig 2D) binding concentrations were calculated from these curves.

CC[C@H](C)[C@H](N)C(=O)N[C@@H](C)C(=O)N[C@@H](CC(C)C)C(=O)N[C@H](C(=O)N[C@@H](CC(C)C)C(=O)N[C@@H](CCC(=O)O)C(=O)N1CCC[C@H]1C(=O)N(C)CC(=O)N[C@@H](CS)C(=O)N[C@@H](CS)C(=O)N[C@@H](CCC(N)=O)C(=O)N[C@@H](CCC(=O)O)C(=O)N[C@@H](CCCNC(=N)N)C(=O)N[C@@H](C)C(=O)N[C@@H](C)C(=O)O)[C@@H](C)CC [I8]
protection of MPO heme ring from degradation (in words) (MPO heme ring): near perfect preservation
solubility in water (in words) [1]: soluble in water
PICO green - NETs, free DNA release [2]: 43
binding to MPO (in words) (MPO): superior binding to MPO
